Patent US20090105562A1, “SYSTEM AND METHODS FOR SCREENING OR ANALYZING TARGETS” (TAIPEI VETERANS GENERAL HOSPITAL, priority 2007, published 2009)

Experiments:
Type in all cases: cell-based, rat
[1] = tested on: NSCs isolated from the hippocampus of adult rats; test: MTT cell viability/survival of NSCs treated with IM; settings: 3 μM IM; Day 3, Day 5 and Day 7 cultures; p<0.05
Protocol: Adult Sprague-Dawley (SD) rats (8 weeks old, 250 g) were anesthetized with intraperitoneal phenobarbital (Sigma, USA), and the location of their brains was mapped. Then, the brain was surgically separated from the hippocampus region. In brief, tissues from the hippocampus of adult rats were dissociated and incubated in Hank's balanced salt solution (HBSS) containing collagenase (78 units/ml) and hyaluronidase (38 units/ml) for 10 minutes at 37° C. The tissues were then mechanically dissected and placed in a trypsin solution (1.33 mg/ml) at 37° C. for another 10 minutes. Dissociated cells were then centrifuged at 150 GG for 5 minutes. […] Viable cells were counted by trypan blue exclusion and plated as 5000 cells/200 μL per well in 96-well plates (Corning Inc, Acton, Mass., USA) with no substrate pretreatment. […] The amount of MTT fromazon product was determined using a microplate reader and the absorbance was measured at 560 nm (SpectraMax 250, Molecular Devices, Sunnyvale, Calif., USA). […] Each individual sample was analyzed in triplicate.

NSCs [2] = test: 5-HT in culture medium of NSCs by microdialysis with HPLC-ECD; settings: p<0.05
Protocol: A microdialysis sampling system connected to the Petri dish was constructed in our laboratory according to the design originally described by Cheng et al., J. Chromatogr. A. 870, 405-411, 2000. The dialysis probe was made of a dialysis membrane 30 mm in length, with an outer diameter of 150 μm, and a nominal molecular weight cut-off of 13000. Ringer solution ([…]) was perfused through the probe at a flow-rate of 2 μl/min. Microdialysate samples were collected every 10 minutes. An HPLC-ED system (HTEC-500; Eicom, Kyoto, Japan) consisting of a three-electrode cell with an Ag/AgCl electrode as the reference electrode, a counter electrode and a graphite electrode as the working electrode was used to measure determine the levels of serotonin (5-HT). […] The column used for separation at room temperature (25° C.) was a PP-ODS (4.6×30 mm) (Eicom, Kyoto, Japan). The mobile phase, containing 0.1 M sodium phosphate buffer (0.1 M NaH2PO4: 0.1 M Na2HPO4=1000:160, v/v), 1% methanol, 500 mg/l sodium secanesulfonate and 50 mg/l EDTA, was adjusted to pH 6.0 with 5 M of NaOH with a flow rate of 0.5 ml/min. A volume of 10 μl of each microdialysate was injected manually into the chromatographic system and assayed on the same sampling day.

LPS-treated NSCs = test: TUNEL assay of LPS-induced apoptosis in NSCs; settings: IM treatment vs without IM
Protocol: An avidin-biotin complex method was used for the immunohistochemical staining in the differentiated NSCs. Following washes with the 3% hydrogen peroxide, sodium azide and antigens were retrieved using a microwave. Each slide was then treated with antibodies for Bcl-2 (Upstate Biotechnology, Waltham, Mass., USA), Nestin (Chemicon, Temecula, Calif., USA), 4′, 6-diamidino-2-phenylindole (DAPI; Chemicon, Temecula, Calif., USA) and MAP2 (Chemicon, Temecula, Calif., USA). Immunoreactive signals were detected with a mixture of biotinylated rabbit anti-mouse IgG and Fluoresave (Calbiochem, La Jolla, Calif., USA) under confocal microscopy (Olympus, FV300). Each individual sample was analyzed in triplicate. Furthermore, apoptotic cells were identified by the TUNEL method (In Situ Cell Death Detection Kit, POD, Roche Boehringer Mannheim Corp., IN, USA) as described in Chiou et al., J. Immunol. 167, 4098-4103, 2001. Briefly, the cells with cover slips were washed with 1× phosphate buffered saline (PBS), fixed with 4% of paraformaldehyde for 10 minutes, permeabilized with 0.1% of triton X-100 for 5 mins, and incubated with the TUNEL reagent provided for 1 hour. […] The percentage of TUNEL-positive cells was measured by the average of 6 different areas as compared to the total cell number in the same section slide (under a×200 power field of a light microscope).

NSCs [3] = test: Real-time RT-PCR mRNA expression in IM-treated NSCs
Protocol: For real-time RT-PCR, the total RNA was extracted using the RNAeasy kit (Qiagen, Valencia, Calif., USA). Briefly, total RNA (1 μg) of each sample was reverse transcribed in 20 μL using 0.5 μg of oligo dT and 200 U Superscript II RT (Invitrogen, Carlsbad, Calif., USA). The amplification was carried out in a total volume of 20 μl containing 0.5 μM of each primer, 4 mM MgCl2, 2 μl LightCycler™ FastStart DNA Master SYBR green I (Roche Molecular Systems, Alameda, Calif., USA) and 2 μl of 1:10 diluted cDNA. The quantification in the unknown samples was performed with LightCycler Relative Quantification Software version 3.3 (Roche Molecular Systems, Alameda, Calif., USA). In each experiment, the GAPDH housekeeping gene was amplified as a reference standard. GAPDH primers were designed: GAPDH(f): […] (nt 414-434, GenBank accession no. BC059110.1), GAPDH(r): ATGACCTTGCCCACA GCCTT (nt 713-733). Other target gene primers were as follows: BDNF(f) 5′-CCAAGGCAGGTTCAA GAG-3′. BDNF(r): 5′-CCAGCAGAAAGAGAAGAGG-3′ (nt 146-331, GenBank accession no.NM_170735). Bcl-2(f): […] (nt 527-550, GenBank accession no. NM_016993.1), Bcl-2(r): GTTGTCCA CCAGGGGTGACAT (nt 721-742). Bax(f): GTGGT TGCCCTCTTCTACTTTGC (nt 328-351, GenBank accession no. NM_017059.1), Bax(r): GAGGACT CCAGCCACAAAGATG (nt 522-544). MAP2(f): GTTTACATTGTTCAGGAC CTCATGG (nt 316-341); MAP2(r): TCGGTAAGAAAGCC AGTGTGGT (nt 551-573. GenBank accession no. NM_U12008.1). Reactions were prepared in duplicate and heated to 95° C. for 10 minutes followed by 40 cycles of denaturation at 95° C. for 10 seconds, annealing at 55° C. for 5 seconds, and extension at 72° C. for 20 seconds. All PCR reactions were performed in duplicate. Standard curves (cycle threshold values versus template concentration) were prepared for each target gene and for the endogenous reference (GAPDH) in each sample. To confirm the specificity of the PCR reaction, PCR products were electrophoresed on a 1.2% agarose gel.

[4] = Day 3, Day 5 and Day 7 of IM-treated NSCs
[5] = Day 5 and Day 7 IM-treated vs non IM-treated NSCs, p<0.05

SMILES | cell survival (MTT assay) [1] | 5-HT level in culture medium (NSCs [2]; Day 7 and Day 14, IM-treated vs without IM-treatment NSCs) | LPS-induced apoptosis in NSCs (TUNEL assay) (LPS-treated NSCs) | level of Bcl-2 mRNA (NSCs [3]; 1, 3 and 5 μM IM, Day 7, vs Day 7 non-IM-treated NSCs) | expression of Bad (NSCs [3]; [4]) | expression of Bax (NSCs [3]; [4]) | mRNA level of Bcl-2 (NSCs [3]; [5]) | mRNA level of MAP2 (NSCs [3]; [5]) | production of 5-HT of IM-treated NSCs (NSCs [2]; agent added, Day 7 and Day 14)
CN(C)CCCN1c2ccccc2CCc2ccccc21 [IM, imipramine] | significantly increased | significantly higher | protected against LPS-induced apoptosis | significantly increased | not activated | not activated | significantly increased | significantly increased | 
N#CC(=C(/N)Sc1ccccc1N)/C(C#N)=C(\N)Sc1ccccc1N [U0126] |  |  |  |  |  |  |  |  | significantly diminished
